Data: patent US10603357B2, “Therapeutic TREM-1 peptides” (Universite de Lorraine, priority 2004, dated 2020)

What was measured:
[1] = test system: NF-κB p50 and p65; assay: NF-κB activity in monocytes (ELISA-based assay); assay type: cell-based, human; conditions: P5 100 ng/mL, 24 hours
Procedure: Monocytes were cultured for 24 hours in the presence of E. coli LPS (O111:B4, 1 μg/mL), anti-TREM-1 mAb (10 μg/mL) and/or P5 (100 ng/mL) as indicated and the levels of NFκB p50 and p65 were determined using an ELISA-based assay. Experiments were performed in triplicate and data are expressed as means of optical densities (SEM).
In order to activate monocytes through TREM-1, an anti-TREM-1 agonist monoclonal antibody (R&D Systems) was added as follows: flat-bottom plates were precoated with 10 μg/mL anti-TREM-1 per well. After thorough washing in phosphate buffered saline (PBS), the monocyte suspensions were added at a similar concentration as above. Some experiments were performed in the presence of protease inhibitors (PMSF and Protease Cocktail Inhibitor; Invitrogen). Cell-free supernatants were assayed for the production of TNF-α and IL-1β by ELISA according to the recommendations of the manufacturer (BD Biosciences, San Diego, USA). To address the effect of P5 on NF-κB activity in monocytes, an ELISA-based assay was performed (BD Mercury™ Transfactor Kit, BD Biosciences). […] Whole-cell extracts were then prepared and levels of NF-κB p50 and p65 were determined according to the recommendations of the manufacturer. All experiments were performed in triplicate and data are expressed as means (SEM). Identification and Quantitation of sTREM-1 Release

[2] = test system: BALB/c mice; assay: CLP polymicrobial sepsis model in mice (Example 3); assay type: in vivo, mouse; conditions: for Serum IL-1β / Serum TNF-α / Serum sTREM-1: 24 hours after CLP
Procedure: Male Balb/C mice (20 to 23 g) were randomly grouped and treated with normal saline (n=14) or the control peptide (n=14, 100 μg) or with P5 (100 μg) in a single infection at HO (n=18), H+4 (n=18) or H+24 (n=18). The last group of mice (n=18) was treated with repeated injections of P5 (100 μg) at H+4, H+8 and H+24.
Mice (n=15 per group) were treated with a single injection of normal saline or 10 μg, 20 μg, 50 μg, 100 μg or 200 μg of P5 at HO after the CLP and monitored for survival.
Mice (5 per group) were killed under anaesthesia at 24 hours after CLP. Bacterial counts in peritoneal lavage fluid and blood were determined and results are expressed as CFU per mL of blood and CFU per mouse for the peritoneal lavage.
Male Balb/C mice (7 to 9 weeks, 20 to 23 g) were anaesthetized by i.p. administration of ketamine and xylazine in 0.2 mL sterile pyrogen-free saline. The caecum was exposed through a 1.0 cm abdominal midline incision and subjected to a ligation of the distal half followed by two punctures with a G21 needle. A small amount of stool was expelled from the punctures to ensure patency. The caecum was replaced into the peritoneal cavity and the abdominal incision closed in two layers. After surgery all mice were injected s.c. with 0.5 ml of physiologic saline solution for fluid resuscitation and s.c. every 12 h with 1.25 mg (i.e. 50 μg/g) of imipenem. The animals were randomly grouped and treated with normal saline (n=14), the control peptide (n=14, 100 μg) or P5 (100 μg) in a single injection at HO (n=18), H+4 (n=18) or H+24 (n=18). The last group of mice (n=18) was treated with repeated injections of P5 (100 μg) at H+4, H+8 and H+24. All treatments were diluted into 500 μl of normal saline and administered i.p. The Inventors next sought to determine the effect of various doses of P5. For this purpose, mice (n=15 per group) were treated with a single injection of normal saline or 10 μg, 20 μg, 50 μg 100 μg or 200 μg of P5 at HO after the CLP and monitored for survival. Five additional animals per group were killed under anaesthesia 24 hours after CLP for the determination of bacterial count and cytokines levels. Peritoneal lavage fluid was obtained using 2 mL RPMI 1640 (Life Technologies) and blood was collected by cardiac puncture. Concentrations of TNF-α and IL-1β in the serum were determined by ELISA (BD Biosciences). For the assessment of bacterial counts, blood and peritoneal lavage fluid were plated in serial log dilutions on tryptic soy supplemented with 5% sheep blood agar plates. After plating, tryptic soy agar plates were incubated at 37° C. aerobically for 24 hours, and anaerobically for 48 hours. Results are expressed as CFU per mL of blood and CFU per mouse for the peritoneal lavage.

[3] = test system: BALB/c mice; assay: LPS-induced endotoxinemia in mice (Example 3); assay type: in vivo, mouse; conditions: for Serum IL-1β / Serum TNF-α / Serum sTREM-1: endotoxemic mice, 100 μg
Procedure: P5 (50 μg or 100 μg) or control vector was administered 60 min before LPS.
P5 (75 μg) or control vector was administered 4 or 6 hours after LPS as indicated. […]
After approval by the local ethical committee, male Balb/C mice (20 to 23 g) were randomly grouped and treated with E. coli LPS intraperitoneally (i.p.) in combination with P5 (in 500 μl normal saline) or control vector before or after LPS challenge. In some experiments, 5 μg of an anti TREM-1 monoclonal antibody was administered i.p. one hour after LPS injection. The viability of mice was examined every hour, or animals were sacrificed at regular intervals. Serum samples were collected by cardiac puncture and assayed for TNF-α and IL-1β by ELISA (BD Biosciences), and for sTREM-1 levels by immunodot.

[4] = pre-treatment by 100 μg, 2 and 4 hours

## LQVTDSGLYRCVIYHPP [P5]
[1]; LPS 1 μg/mL
  effect of LPS on NF-κB activation: did not alter
[1]; anti-TREM-1 mAb 10 μg/mL
  NF-κB activation induced by the engagement of TREM-1: inhibited
[2]; 100 μg at H+4, H+8 and H+24 after CLP
  effect on survival of repeated injections: more favourable effect on survival
[2]; 10 μg at H0
  Serum IL-1β: 356 ± 62 pg/mL
  Serum TNF-α: 110 ± 11 pg/mL
  Serum sTREM-1: 43 ± 8 ng/mL
[2]; 20 μg at H0
  Serum IL-1β: 324 ± 58 pg/mL
  Serum TNF-α: 89 ± 10 pg/mL
  Serum sTREM-1: 58 ± 8 ng/mL
[2]; 50 μg at H0
  Serum IL-1β: 57 ± 11 pg/mL
  Serum TNF-α: 24 ± 6 pg/mL
  Serum sTREM-1: 93 ± 10 ng/mL
[2]; 100 μg at H0
  Serum IL-1β: 31 ± 3 pg/mL
  Serum TNF-α: 20 ± 3 pg/mL
  Serum sTREM-1: 118 ± 12 ng/mL
[2]; 200 μg at H0
  Serum IL-1β: 37 ± 8 pg/mL
  Serum TNF-α: 21 ± 7 pg/mL
  Serum sTREM-1: 158 ± 13 ng/mL
[3]; 75 μg, delayed up to 4 hours after LPS
  protection against LD100 dose of LPS, delayed treatment: significant protection
[3]; LD100 of LPS
  clinical appearance of treated mice: remained well groomed and active, had no diarrhoea, and were lively
  late death over one week: No late death occurred
[3]; H2
  Serum IL-1β: 0.2 ± 0.1 ng/mL
  Serum TNF-α: 2.4 ± 0.5 ng/mL
  Serum sTREM-1: 475 ± 37 ng/mL
[3]; H4
  Serum IL-1β: 0.9 ± 0.2 ng/mL
  Serum TNF-α: 0.1 ± 0.1 ng/mL
  Serum sTREM-1: 243 ± 28 ng/mL
[3]; [4]
  increase of serum sTREM-1 levels compared to controls: 2 fold
  reduction of serum cytokines levels compared to controls: 30%
[3]; single dose (50 μg or 100 μg) 60 min before LD100 of LPS
  protection from death: prevented from death in a dose-dependent manner
